Reference: patent US20230338521A1, “METHODS OF TREATING CANCER USING A COMBINATION OF A PD-1 ANTAGONIST, A CHEMORADIATION THERAPY AND A PARP INHIBITOR” (priority 2020, published 2023)
Values joined by “and” are separate entries in the source; they are usually repeats but may differ in a detail not shown here. Equal values may be shown once.

What was measured:
[1] = Phase 2 clinical trial of pembrolizumab plus platinum doublet chemotherapy and concurrent radiotherapy: grade ≥3 pneumonitis and adverse events; assay type: in vivo, human; details: pembrolizumab plus CCRT; for Grade ≥3 pneumonitis (all cause), % [90% CI]: all enrolled patients, data cutoff Jan. 3, 2020
Source text: (§1) FIG. 1 illustrate a schema of a clinical phase 2 study of pembrolizumab plus platinum doublet chemotherapy and concurrent radiotherapy as first-line therapy for unresectable, locally advanced stage III NSCLC (NSCLC).
(§2) This is a non-randomized, open label study. FIG. 1 sets forth a schematic of the study. The primary objective is overall response rate (ORR) per response evaluation criteria in solid tumors (RECIST) version 1.1 by blinded independent central review (BICR). Secondary objectives are progression free survival (PFS), overall survival (OS) and safety. Key eligibility criteria are as set forth in FIG. 1 and include Stage IIIA-C, unresectable, locally advanced, pathologically confirmed, previously untreated NSCLC; measurable disease based on RECIST v1.1; eastern cooperative oncology group (ECOG) performance status 0 or 1; adequate pulmonary function; and no prior systemic immunosuppressive therapy within 7 days.
A secondary primary objective of the study was incidence of grade≥3 pneumonitis, which was assessed in all enrolled patients, regardless of their follow-up duration (see table below). In both cohorts, the rate of grade≥3 pneumonitis was less than 10%. One patient in cohort B had interstitial lung disease; the remaining patients had either pneumonitis or radiation pneumonitis. Incidence of other adverse events was consistent with that reported in other pembrolizumab monotherapy studies in NSCLC. Immune-mediated adverse events and infusion reactions (regardless of attribution to study treatment by the investigator) occurred in 47% of patients in cohort A and 27% in cohort B. 15% of patients in cohort A and 8% in cohort B experienced grade 2-5 immune mediated adverse events or infusion reactions.

[2] = system: unresectable, locally advanced stage III NSCLC; assay: Phase 2 clinical trial of pembrolizumab plus platinum doublet chemotherapy and concurrent radiotherapy: ORR, duration of response, PFS, OS by BICR per RECIST v1.1; assay type: in vivo, human; details: pembrolizumab plus CCRT; for 6-mo OS rate / 6-mo PFS rate / Response duration ≥6 month, % / Duration of response, median (range): Kaplan-Meier estimate; for Duration of response, median (range): + = no progressive disease at last assessment; for ORR, % [90% CI]: patients with ≥15 weeks follow up, data cutoff Jan. 3, 2020
Source text: as §1, §2
The table below provides ORR and Duration of Response/Efficacy by BICR per RECIST v1.1, patients with ≥15 weeks follow up (Jan. 3, 2020 data cutoff date)
PFS and OS were assessed in patients with at least 15 weeks follow up. As shown in the table above, at the data cutoff, few patients in either cohort had experienced disease progression or died.

[3] = Cohort A, N = 112, ≥15 weeks follow up
[4] = Cohort B, N = 53, ≥15 weeks follow up

With “pembrolizumab: monoclonal antibody directed to the PD-1 receptor; KEYTRUDA, Merck and Co., Inc.” the “Immune-mediated adverse events and infusion reactions, Grades 3-5, %” value ([1]; Cohort A, N = 112) was “(15.2) %”, the “Immune-mediated adverse events and infusion reactions, Led to death, %” value ([1]; Cohort A, N = 112) was “(3.6) %” and the “Treatment Releated Adverse Events, %” value ([1]; Cohort A, N = 112) was “(93.8) %”. The “Treatment Releated Adverse Events, Grade 3-5, %” value ([1]; Cohort A, N = 112) was “(64.3) %”, the “Treatment Releated Adverse Events, Led to death, %” value ([1]; Cohort A, N = 112) was “(3.6) %” and the “Treatment Releated Adverse Events, Led to discontinuation of any treatment component, %” value ([1]; Cohort A, N = 112) was “(28.6) %”. For the same substance, the “Grade ≥3 pneumonitis (all cause), % [90% CI]” value ([1]; Cohort A, N = 112) was “(8.0) [4.3-13.6] %”, the “Treatment Releated Adverse Events, %” value ([1]; Cohort B, N = 73) was “(87.7) %” and the “Treatment Releated Adverse Events, Grade 3-5, %” value ([1]; Cohort B, N = 73) was “(41.1) %”. The “Treatment Releated Adverse Events, Led to discontinuation of any treatment component, %” value ([1]; Cohort B, N = 73) was “(12.3) %”, the “Grade ≥3 pneumonitis (all cause), % [90% CI]” value ([1]; Cohort B, N = 73) was “(5.5) [1.9-12.1] %” and the “grade 2-5 immune mediated adverse events or infusion reactions, % of patients” value ([1]; cohort A) was 15%. The “grade 2-5 immune mediated adverse events or infusion reactions, % of patients” value ([1]; cohort B) was 8%, the “patients with interstitial lung disease (among grade ≥3 pneumonitis)” value ([1]; cohort B) was “One” and the “incidence of adverse events” value ([1]; compared with CCRT for stage III NSCLC and pembrolizumab monotherapy) was “consistent with the established toxicity profiles”. The “Observed rates of grade ≥3 pneumonitis” value ([1]; compared with immunotherapy combined with CCRT) was “within the expected range”, the “6-mo OS rate” value ([2]; Cohort A, N = 112) was 87% and 87.2% and the “6-mo PFS rate” value ([2]; Cohort A, N = 112) was 81.4%. For the same substance, the “Response duration ≥6 month, %” value ([2]; Cohort A, N = 112) was “(91.1) %”, the “Duration of response, median (range)” value ([2]; Cohort A, N = 112) was “NR (1.6+ to 10.5+)” and the “ORR, % [90% CI]” value ([2]; Cohort A, N = 112) was “(67.0) [58.9-74.3] %”. The “Complete response (CR), %” value [2, 3] was “(2.7) %”, the “No Assessment, %” value [2, 3] was “(8.9) %” and the “Not evaluable, %” value [2, 3] was “(2.7) %”. For the same substance, the “PD, %” value [2, 3] was “(0.9) %”, the “Partial response (PR), %” value [2, 3] was “(64.3) %” and the “6-mo OS rate” value ([2]; Cohort B, N = 53) was 95% and 94.8%. For the same substance, the “6-mo PFS rate” value ([2]; Cohort B, N = 53) was 85.2%, the “Response duration ≥6 month, %” value ([2]; Cohort B, N = 53) was “(100) %” and the “Duration of response, median (range)” value ([2]; Cohort B, N = 53) was “NR (1.7+ to 10.5+)”. The “ORR, % [90% CI]” value ([2]; Cohort B, N = 53) was “(56.6) [44.4-68.2] %”, the “Complete response (CR), %” value [2, 4] was “(3.8) %” and the “No Assessment, %” value [2, 4] was “(9.4) %”. For the same substance, the “Partial response (PR), %” value [2, 4] was “(52.8) %”, the ORR ([2]; both cohorts) was “exceeded 50%” and the “progression free survival rate at 6 months” value ([2]; both cohorts, at least 15 weeks follow up) was “greater than 80%”. For the same substance, the Median overall survival ([2]; either cohort, at data cutoff) was “had not been reached”, the “Median progression free survival” value ([2]; either cohort, at data cutoff) was “had not been reached” and the Estimated response duration ([2]; most patients with a response) was ≥ 6 months. For the same substance, the antitumor activity ([2]; patients with unresectable, locally advanced stage III NSCLC) was “promising antitumor activity”.
